PubChem BioAssay (NCI)
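In this assay, cells in 96-well plates receive the compound at five concentrations for 48 hours. Endpoints are linearly interpolated between the surrounding concentrations. GI50 marks 50% less growth. At the TGI there is no net growth.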

Columns and labels:
Assay in all cases: inhibition of tumour cell growth, NCI panel, 48 h
HCT-116 colon = system: HCT-116 colon
MDA-MB-435 = system: MDA-MB-435
NCI-H23 lung = system: NCI-H23 lung
SNB-19 CNS = system: SNB-19 CNS
OVCAR-4 ovarian = system: OVCAR-4 ovarian
PC-3 prostate = system: PC-3 prostate

| SMILES | GI50 (HCT-116 colon) | TGI (HCT-116 colon) | GI50 (MDA-MB-435) | TGI (MDA-MB-435) | GI50 (NCI-H23 lung) | TGI (NCI-H23 lung) | GI50 (SNB-19 CNS) | TGI (SNB-19 CNS) | GI50 (OVCAR-4 ovarian) | TGI (OVCAR-4 ovarian) | GI50 (PC-3 prostate) | TGI (PC-3 prostate) |
| --- | --- | --- | --- | --- | --- | --- | --- | --- | --- | --- | --- | --- |
| Cc1cc(-c2ccco2)cc(C)c1/C=C/c1cncc(-c2nn[nH]n2)c1 | > 25 µM | > 25 µM | > 25 µM | > 25 µM | > 25 µM | > 25 µM | > 25 µM | > 25 µM | > 25 µM | > 25 µM | > 25 µM | > 25 µM |
| CN1CC[C@]23c4c5ccc(O)c4OC2c2[nH]ncc2C[C@H]3[C@H]1C5 (some centres not stated) | – | > 100 µM | – | > 100 µM | – | > 100 µM | – | > 100 µM | – | > 100 µM | – | > 100 µM |
| COc1cccc(/C=C2/S/C(=N/Nc3nc(C)c(C(C)=O)s3)NC2=O)c1O | – | > 100 µM | – | > 100 µM | – | > 100 µM | – | > 100 µM | – | > 100 µM | – | 70.4 µM |
| COc1cccc(N2C(=O)C3CC(CC(C)(C)C)c4c([nH]c5ccccc45)C3C2=O)c1 (configuration not stated) | – | > 10 µM | – | > 10 µM | – | > 10 µM | – | > 10 µM | – | > 10 µM | – | > 10 µM |
| COC(=O)C1=Nc2ccc(F)cc2/C1=C/c1sc(=S)[nH]c1O | 0.0468 µM | 16.7 µM | 0.0233 µM | 0.0605 µM | 0.408 µM | > 100 µM | 0.179 µM | > 52.9 µM | 0.692 µM | 23.8 µM | 0.128 µM | 26.3 µM |
| Cc1ccc(-c2nc(C(Cl)Cl)nc3cc(C)nn23)cc1 | 2.09 µM | > 100 µM | – | – | 0.742 µM | 2.75 µM | 2.34 µM | > 100 µM | 1.07 µM | 3.87 µM | 2.55 µM | > 100 µM |
| COc1ncc2cc1NS(=O)(=O)c1cccc(c1)C(=O)NCC1=CC=C(S1)c1ncnc3c1SC2=C3C | 0.277 µM | 2.85 µM | 0.434 µM | 3.43 µM | – | – | – | – | 1.22 µM | 10.5 µM | 0.0797 µM | 2.77 µM |
| CCN(CC)C(=O)CCCCCn1c2ccccc2c2c3c(c4c5ccccc5[nH]c4c21)C(=O)N(O)C3=O | 3.75 µM | 28.1 µM | 4.04 µM | 40 µM | 3.33 µM | 47.3 µM | 4.7 µM | > 100 µM | 5.06 µM | > 100 µM | 3.19 µM | 52.9 µM |
| CCC1=C(c2ccc(OC)cc2)CC[C@]2(CCNC2=O)[C@@H]1C | – | 52.6 µM | – | 47.2 µM | – | > 100 µM | – | > 100 µM | – | 69.5 µM | – | > 77 µM |
| Cc1cc2c3c(c1)CCCN3CCC2 | – | > 10 µM | – | > 10 µM | – | > 10 µM | – | > 10 µM | – | > 10 µM | – | > 10 µM |
| O=CC(O)C(O)C(OC1OC(CO)C(O)C(O)C1O)C(O)CO (configuration not stated) (tested in a mixture with another compound) | – | > 100 µM | – | > 100 µM | – | > 100 µM | – | > 100 µM | – | > 100 µM | – | > 100 µM |
| CC(C)C/C(=N\NC(=O)c1ccncc1)c1cc(Cl)ccc1O | 0.244 µM | 11 µM | 0.682 µM | 44.9 µM | 0.449 µM | 33.5 µM | 1.66 µM | > 100 µM | 0.26 µM | > 32.4 µM | 1.01 µM | 73.5 µM |
